# Experimental data as given in article PMC10338423, “Synthesis and preclinical evaluation of a novel fluorine-18 labeled small-molecule PET radiotracer for imaging of CXCR3 receptor in mouse models of atherosclerosis” (EJNMMI Research, 2023).
# Assays:
# [1] = target: human CXCR3; parameters: method as in PMID 24174496, PMID 25576486; settings: cited from earlier work
# [2] = target: T1, CXCR3B (Homo sapiens, UniProt P49682); assay: Competition binding assay with [125I]CXCL10 on membranes of CXCR3B-transfected HEK293 cells; settings: 80 pM 125I-CXCL10, Cheng-Prusoff
# T1 construct: crude membranes
# T1 sequence (P49682 1-415 isoform P49682-2): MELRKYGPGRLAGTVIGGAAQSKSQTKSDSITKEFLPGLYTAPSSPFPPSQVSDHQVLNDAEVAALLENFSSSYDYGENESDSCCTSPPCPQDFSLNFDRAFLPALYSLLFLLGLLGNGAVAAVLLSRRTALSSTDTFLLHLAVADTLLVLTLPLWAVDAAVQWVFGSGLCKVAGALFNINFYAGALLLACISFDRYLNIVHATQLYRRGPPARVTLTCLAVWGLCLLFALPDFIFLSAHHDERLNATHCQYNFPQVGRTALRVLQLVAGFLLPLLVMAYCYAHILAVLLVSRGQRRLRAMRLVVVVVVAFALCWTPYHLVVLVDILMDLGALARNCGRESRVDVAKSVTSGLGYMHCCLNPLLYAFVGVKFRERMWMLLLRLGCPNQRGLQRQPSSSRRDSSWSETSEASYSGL
# Experimental: (§1) The equilibrium inhibition constants (Ki) value of 1 at CXCR3 receptor was measured through competition binding assay using NBI74330 (Tocris Bioscience, Bristol, UK), an antagonist of CXCR3 receptor, [^125I]CXCL10 (ViTrax Inc., Placentia, CA) and CXCR3 transfected human embryonic kidney (HEK) 293 cells. CXCR3 has two major variants, CXCR3A and CXCR3B, with distinctive biological roles, so two types of HEK293 cells containing each CXCR3 variant were prepared. Before the cell-binding assay, two cDNA constructs containing CXCR3 transcript variant A (CXCR3A, GenBank accession No. NM_001504; GenScript) and CXCR3 transcript variant B (CXCR3B, GenBank accession No. NM_001142797; GenScript) and HEK293 cells were purchased from GenScript Biotech (Piscataway, NJ) and ATCC (Manassas, VA), respectively. Then the cDNA constructs were transfected to HEK293 cells, and the transfected cells were cultured to get enough amount for the cell-binding assay. […] The IC50 value of 1 was measured based on the regression plot between the […] radioligand and the different concentrations of 1. […]
# (§2) Radioligand binding was performed using crude HEK293 membranes overexpressing CXCR3A or CXCR3B as previously described. […] The Ki values of each competitive antagonist for specific ^125I-CXCL10 binding sites were calculated using the method of Cheng and Prusoff, as previously described. […]
# [3] = target: T2, CXCR3A (Homo sapiens, UniProt P49682); assay: Competition binding assay with [125I]CXCL10 on membranes of CXCR3A-transfected HEK293 cells; settings: 80 pM 125I-CXCL10, Cheng-Prusoff
# T2 construct: crude membranes
# T2 sequence (P49682 1-368): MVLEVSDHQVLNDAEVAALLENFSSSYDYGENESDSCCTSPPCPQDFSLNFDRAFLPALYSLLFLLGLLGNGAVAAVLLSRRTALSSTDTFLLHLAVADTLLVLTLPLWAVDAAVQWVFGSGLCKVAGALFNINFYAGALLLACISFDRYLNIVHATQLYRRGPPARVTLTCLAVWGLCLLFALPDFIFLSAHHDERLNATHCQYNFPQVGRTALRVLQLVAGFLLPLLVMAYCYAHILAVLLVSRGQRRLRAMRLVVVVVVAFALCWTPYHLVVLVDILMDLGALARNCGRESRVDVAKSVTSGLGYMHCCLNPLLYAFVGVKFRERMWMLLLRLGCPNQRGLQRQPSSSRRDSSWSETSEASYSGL
# Experimental: as §1, §2
# [4] = test system: CXCR3; parameters: method as in PMID 24486132; settings: read-out: binding affinity IC50; cited from earlier work
Compound,Kd [1] [pM],Ki [2] [pM],Ki [3] [pM],IC50 [4] [pM]
CCNC(=O)c1cnc(N2CCN(C3CCN(Cc4ccc(Cl)cc4)CC3)[C@@H](CC)C2)c(Cl)c1 [VUF11211],650,,,
"CC[C@H]1CN(c2ncc(-c3nnco3)cc2Cl)CCN1C1CCN(Cc2ccc(Cl)cc2F)CC1 [compound 1, (S)-2-(5-chloro-6-(4-(1-(4-chloro-2-fluorobenzyl)piperidin-4-yl)-3-ethylpiperazin-1-yl)pyridin-3-yl)-1,3,4-oxadiazole]",,310 ± 20,810 ± 20,800
